Assay results from US4327178A, “Urinary kallikrein assay: specific substrates and assay method” (University of Miami, priority 1981, dated 1982).
Where a SMILES comes first, the peptide text is derived from it. The star is where a group is joined. (3H)benzylamide = C-terminal benzylamide carrying tritium label; (3H)anilide = C-terminal anilide carrying tritium label; pNA = O=[N+]([O-])c1ccc(N*)cc1; Bz = O=C(c1ccccc1)*; X2 = Ic1cccc(CN*)c1; X3 = Ic1ccc(CN*)cc1; X1 = Ic1ccc(N*)cc1

Columns and labels:
Assay type in all cases: biochemical
[1] = target: purified urinary kallikrein (Homo sapiens, UniProt P06870); assay: Urinary kallikrein-catalyzed hydrolysis of N-alpha-acylated substrates relative to non-acylated compounds; conditions: approximately 20 nM substrate, 60 ng purified urinary kallikrein, 100 μl 0.1 M tris HCl pH 9.5, 37° C., 15 minutes; conditions optimized for non-acylated substrate
purified urinary kallikrein, sequence (P06870 25-262): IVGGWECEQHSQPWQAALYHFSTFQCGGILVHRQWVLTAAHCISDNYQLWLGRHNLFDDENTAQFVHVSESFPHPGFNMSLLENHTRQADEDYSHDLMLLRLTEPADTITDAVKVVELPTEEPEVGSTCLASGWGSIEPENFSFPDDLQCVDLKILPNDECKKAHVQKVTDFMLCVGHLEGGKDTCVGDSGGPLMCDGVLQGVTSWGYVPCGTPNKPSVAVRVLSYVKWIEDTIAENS

human urinary kallikrein [2] = target: T1, human urinary kallikrein (Homo sapiens, UniProt P06870); assay: Assay of human urinary kallikrein: suitability as substrate (in words)
T1 construct: dialyzed or gel-filtered human urine in the general A1 assay
T1 sequence (P06870 25-262): as above
Description: Human urine is treated to remove low molecular weight impurities, either by overnight dialysis against 0.9%(w/v) NaCl or by gel filtration. A typical reaction mixture may contain 50 μl dialyzed urine and 0.1 μCi of substrate at a final concentration of 20 ng/ml buffered with 0.1 M tris-HCl, pH 9.5, in a total reaction volume of 100 μl. Reaction tubes are incubated at 37° C. for two hours. Variations of incubation time and temperature for the purpose of increasing or decreasing the amount of product formed are known expedients within the scope of ordinary skill in the art. Reactions may be stopped by any technique which causes rapid termination of the enzyme-catalyzed reaction without significant alteration of the product concentration. Use of an excess volume of base, e.g., 1.0 ml of 0.1 NaOH, is preferred. The product is separated from the reaction mixture by extraction with a measured volume of an aprotic solvent such as toluene or ether, or by other suitable means such as ion-exchange chromatography. Where solvent extraction is employed, an aliquot of the solvent (containing reaction product) may be sampled for radioactivity counting. Scintillation counting is preferred for counting tritium, and use of an extracting solvent such as toluene or ether permits direct transfer of a solvent aliquot to the scintillation fluid.
A standard curve may be constructed substituting purified kallikrein for dialyzed urine. A unit of enzyme is defined herein as that amount required to hydrolyze substrate at an initial rate of 1% per minute at 37° C. The foregoing definition is applicable where the concentration of substrate is well below Km such that hydrolysis is first order with respect to substrate concentration. The number of kallikrein units/ml of dialyzed urine is given by [formula] where 1.0 ml of solvent is used for the extraction and an aliquot of 0.5 ml is taken for counting. The blank c.p.m. value is determined in a control reaction lacking enzyme but otherwise treated identically.

human urinary kallikrein [3] = target: T1, human urinary kallikrein; assay: Km and Vmax of substrates with purified human urinary kallikrein (Lineweaver-Burk double reciprocal plot)
Description: The double reciprocal plot method of H. Lineweaver and D. Burk (J.Am.Chem.Soc. 56, 658 (1934)) was used to estimate Km and Vmax for these substrates. Purified human urinary kallikrein prepared as described by Oza, N. B. and Ryan, J., supra, was used in this study. Reactions were conducted at 37° C. for 15 minutes with 62.5 ng of enzyme and the indicated amount of substrate, in 0.05 M tris-HCl pH 9.5. Reactions were terminated by the addition of a nine-fold excess of 0.1 N NaOH. The ^3 H-labeled product was separated from substrate by extraction with an equal volume (1 ml) of toluene. A 0.5 ml aliquot of the toluene phase was transferred to a scintillation vial containing a toluene-based scintillation fluid and counted. Results for H-ProPheArg-[^3 H]-benzylamide are shown in FIG. 1, and for H-ProPheArg-[^3 H]anilide in FIG. 2. The units of l/v were nmol^-1 min. Units of l/S were μmole^-1.liter.

Plasmin = assay: Reaction specificity: hydrolysis by serine proteases; conditions: 20 nM substrate, 0.1 M tris-HCl, 37° C., 15 minutes
Description: (§1) The hydrolysis of H-ProPheArg-[^3 H]benzylamide by a series of serine proteases was measured. Reactions were carried out using 20 nM substrate in 0.1 M tris-HCl buffer, pH 7.5 or pH 9.5, at 37° C. for 15 minutes in the presence of varied amounts of enzyme. The results are shown in Table 2, expressed as the amount of enzyme necessary to hydrolyze 10% of the substrate under the given conditions. "No hydrolysis" is used to denote no measureable reaction with a maximum of 0.5 mg/ml enzyme.

Thrombin = assay: as above; conditions: printed on the pH 9.5 line (pH 7.5 line blank); No hydrolysis = no measureable reaction with a maximum of 0.5 mg/ml enzyme; 20 nM substrate, 37° C., 15 minutes
Description: as §1

Trypsin = assay: as above; conditions: 20 nM substrate, 0.1 M tris-HCl, 37° C., 15 minutes
Description: as §1

Urokinase = assay: as above; conditions: printed on the pH 9.5 line (pH 7.5 line blank); No hydrolysis = no measureable reaction with a maximum of 0.5 mg/ml enzyme; 20 nM substrate, 37° C., 15 minutes
Description: as §1

human urinary kallikrein [4] = target: T1, human urinary kallikrein; assay: as above; conditions: 20 nM substrate, 0.1 M tris-HCl, 37° C., 15 minutes
Description: as §1

α-Chymotrypsin = assay: as above; conditions: printed on the pH 9.5 line (pH 7.5 line blank); No hydrolysis = no measureable reaction with a maximum of 0.5 mg/ml enzyme; 20 nM substrate, 37° C., 15 minutes
Description: as §1

human urinary kallikrein [5] = target: T1, human urinary kallikrein; assay: Relative activity of halogenated (4-iodoanilide) substrates, spectrophotometric standard assay; conditions: 150 nmol substrate in 0.7 ml 0.05 tris-HCl, pH 8.1, 37° C.
Description: Unlabeled halogenated 4-iodoanilide substrates, prepared essentially as described in Example 5, were compared with respect to reaction rate with human urinary kallikrein in a standard assay. Each substrate, 150 nmol, was incubated with purified human urinary kallikrein in 0.7 ml of 0.05 tris-HCl, pH 8.1 at 37° C. At timed intervals, 100 μl of reaction mixture was added to 1.0 ml of 0.1 N NaOH. The resulting solution was extracted with CHCl3 and the organic phase was evaporated to dryness. The residue was dissolved in buffer and examined spectrophotometrically in the 240-300 nm range, where a difference spectrum between substrate and product is measureable. The results are shown in Table 1, with rates of hydrolysis expressed as nmol/min/mg enzyme.

[6] = 62.5 ng purified enzyme, 0.05 M tris-HCl pH 9.5, 37° C., 15 minutes

[3H]c1cccc(CNC(=O)[C@H](CCCNC(=N)N)NC(=O)[C@H](Cc2ccccc2)NC(=O)[C@@H]2CCCN2C(=O)c2ccccc2)c1 [Benzoyl-ProPheArg-[^3 H]benzylamide]
rate of hydrolysis relative to the non-acylated compounds [1]: about 1/2

N=C(N)NCCC[C@H](NC(=O)[C@H](Cc1ccccc1)NC(=O)[C@@H]1CCCN1C(=O)[C@H](CO)NC(=O)[C@@H](N)Cc1ccccc1)C(=O)NCc1cccc(I)c1 [H-PheSerProPheArg-3-iodobenzylamide] (H-FSPFR-X2)
activity as substrate for human urinary kallikrein (in words) (human urinary kallikrein [2]): suitable substrates

N=C(N)NCCC[C@H](NC(=O)[C@H](Cc1ccccc1)NC(=O)[C@@H]1CCCN1C(=O)[C@H](CO)NC(=O)[C@@H](N)Cc1ccccc1)C(=O)NCc1ccc(I)cc1 [H-PheSerProPheArg-4-iodobenzylamide] (H-FSPFR-X3)
activity as substrate for human urinary kallikrein (in words) (human urinary kallikrein [2]): suitable substrates

[3H]c1cccc(CNC(=O)[C@H](CCCNC(=N)N)NC(=O)[C@H](Cc2ccccc2)NC(=O)[C@@H]2CCCN2)c1 [H-ProPheArg-[^3 H]benzylamide, H-ProPheArg-[^3 H] benzylamide]
Km (human urinary kallikrein [3]; [6]): 3 µM | Vmax (human urinary kallikrein [3]; [6]): 0.88 mmol/min/mg protein | Amount of Enzyme Required for 10% Hydrolysis (Plasmin; pH 7.5): 17,200 ng | Amount of Enzyme Required for 10% Hydrolysis (Plasmin; pH 9.5): 30,600 ng | Amount of Enzyme Required for 10% Hydrolysis (Thrombin): No hydrolysis | Amount of Enzyme Required for 10% Hydrolysis (Trypsin; pH 7.5): 400 ng | Amount of Enzyme Required for 10% Hydrolysis (Trypsin; pH 9.5): 1,030 ng | Amount of Enzyme Required for 10% Hydrolysis (Urokinase): No hydrolysis | Amount of Enzyme Required for 10% Hydrolysis (human urinary kallikrein [4]; pH 7.5): 265 ng | Amount of Enzyme Required for 10% Hydrolysis (human urinary kallikrein [4]; pH 9.5): 45 ng | Amount of Enzyme Required for 10% Hydrolysis (as enzyme concentration, in brackets) (human urinary kallikrein [4]; pH 9.5): 10 nM | Amount of Enzyme Required for 10% Hydrolysis (α-Chymotrypsin): No hydrolysis

N=C(N)NCCC[C@H](NC(=O)[C@H](Cc1ccccc1)NC(=O)[C@@H]1CCCN1C(=O)[C@@H](N)CO)C(=O)NCc1cccc(I)c1 [H-SerProPheArg-3-iodobenzylamide] (H-SPFR-X2)
activity as substrate for human urinary kallikrein (in words) (human urinary kallikrein [2]): suitable substrates

N=C(N)NCCC[C@H](NC(=O)[C@H](Cc1ccccc1)NC(=O)[C@@H]1CCCN1C(=O)[C@@H](N)CO)C(=O)NCc1ccc(I)cc1 [H-SerProPheArg-4-iodobenzylamide] (H-SPFR-X3)
activity as substrate for human urinary kallikrein (in words) (human urinary kallikrein [2]): suitable substrates

N=C(N)NCCC[C@H](NC(=O)[C@@H](N)Cc1ccccc1)C(=O)Nc1ccc(I)cc1 [Phe--Arg--4-iodoanilide]
Rate of Hydrolysis (human urinary kallikrein [5]): Nil

N=C(N)NCCC[C@H](NC(=O)[C@H](Cc1ccccc1)NC(=O)[C@@H]1CCCN1C(=O)[C@H](CO)NC(=O)[C@@H](N)Cc1ccccc1)C(=O)Nc1ccc(I)cc1 [Phe--Ser--Pro--Phe--Arg--4-iodoanilide] (H-FSPFR-X1)
Rate of Hydrolysis (human urinary kallikrein [5]): 1.12 nmol/min/mg enzyme

N=C(N)NCCC[C@H](NC(=O)[C@H](Cc1ccccc1)NC(=O)[C@@H]1CCCN1)C(=O)Nc1ccc(I)cc1 [Pro--Phe--Arg--4-iodoanilide]
Rate of Hydrolysis (human urinary kallikrein [5]): 0.73 nmol/min/mg enzyme

N=C(N)NCCC[C@H](NC(=O)[C@H](Cc1ccccc1)NC(=O)[C@@H]1CCCN1C(=O)[C@@H](N)CO)C(=O)Nc1ccc(I)cc1 [Ser--Pro--Phe--Arg--4-iodoanilide] (H-SPFR-X1)
Rate of Hydrolysis (human urinary kallikrein [5]): 0.62 nmol/min/mg enzyme

[3H]c1cccc(CNC(=O)[C@H](CCCNC(=N)N)NC(=O)[C@H](Cc2ccccc2)NC(=O)[C@@H]2CCCN2C(C)=O)c1 [acetylated]
rate of hydrolysis relative to the non-acylated compounds [1]: generally similar rates

N=C(N)NCCC[C@H](NC(=O)[C@H](Cc1ccccc1)NC(=O)[C@@H]1CCCN1C(=O)c1ccccc1)C(=O)Nc1ccc([N+](=O)[O-])cc1 [benzoyl-ProPheArg-p-nitroanilide, reference compound] (Bz-Pro-Phe-Arg-pNA)
activity as substrate for human urinary kallikrein (in words) (human urinary kallikrein [2]): inactive

[3H]c1cccc(CNC(=O)[C@H](CCCNC(=N)N)NC(=O)[C@H](Cc2ccccc2)NC(=O)[C@@H]2CCCN2C(=O)C2CCCC2)c1 [cyclopentylcarbonylated]
rate of hydrolysis relative to the non-acylated compounds [1]: generally similar rates

[3H]c1cccc(CNC(=O)[C@H](CCCNC(=N)N)NC(=O)[C@H](Cc2ccccc2)NC(=O)[C@@H]2CCCN2C(=O)CCC(=O)O)c1 [succinyl derivative, Succinyl-ProPheArg-[^3 H]benzylamide]
rate of hydrolysis relative to the non-acylated compounds [1]: 1/10

H-PheSerProPheArg-[^3 H] anilide (H-FSPFR-{(3H)anilide})
activity as substrate for human urinary kallikrein (in words) (human urinary kallikrein [2]): substrates

H-PheSerProPheArg-[^3 H]benzylamide (H-FSPFR-{(3H)benzylamide})
activity as substrate for human urinary kallikrein (in words) (human urinary kallikrein [2]): suitable substrates

H-ProPheArg-[^3 H]anilide
Vmax (human urinary kallikrein [3]; [6]): 0.39 mmol/min/mg protein | Km (human urinary kallikrein [3]; 62.5 ng purified enzyme, 0.05 M tris-HCl pH 9.5, 37° C., 15 minutes, listed as H-ProPheArg-[^3 H]-anilide): 0.8 µM | Km (human urinary kallikrein [3]; 62.5 ng purified enzyme, 0.05 M tris-HCl pH 9.5, 37° C., 15 minutes, listed as ProPheArg-[^3 H] anilide): ~0.8 µM | Vmax (human urinary kallikrein [3]; as summarised in the detailed description): approximately 0.39 mmol/min/mg | activity as substrate for human urinary kallikrein (in words) (human urinary kallikrein [2]): excellent substrate

H-SerProPheArg-[^3 H]-benzylamide (H-SPFR-{(3H)benzylamide})
activity as substrate for human urinary kallikrein (in words) (human urinary kallikrein [2]): suitable substrates

H-SerProPheArg-[^3 H]anilide (H-SPFR-{(3H)anilide})
activity as substrate for human urinary kallikrein (in words) (human urinary kallikrein [2]): substrates
